# Tests used:
# Type in all cases: cell-based
# [1] = test system: Aeromonas hydrophila; test: MIC against Gram-negative bacteria: Aeromonas hydrophila; conditions: for MIC against A. hydrophila / MIC (μg/mL) A. hydrophila: Aeromonas hydrophila; for MIC: A. hydrophila
# Summary of the method: (§1)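 MIC, the lowest recombinant protein concentration giving no bacterial growth, found by two-fold serial dilution of human EGF-domain proteins in triplicate. Inoculum 5×10^5 CFU/mL in LB from cultures at McFarland 0.5; plates incubated at 37° C, 175 rpm shaking.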
# [2] = test system: Pseudomonas aeruginosa; test: MIC against Gram-negative bacteria: Pseudomonas aeruginosa; conditions: for MIC against P. aeruginosa / MIC (μg/mL) P. aeruginosa: Pseudomonas aeruginosa; for MIC: P. aeruginosa
# Summary of the method: as §1
# [3] = test system: Citrobacter diversus; test: MIC against Gram-negative bacteria: Citrobacter diversus; conditions: for MIC against C. diversus / MIC (μg/mL) C. diversus: Citrobacter diversus; for MIC: C. diversus
# Summary of the method: as §1
# [4] = test system: Moraxella catarrhalis; test: MIC against Gram-negative bacteria: Moraxella catarrhalis; conditions: for MIC against M. catarrhalis / MIC (μg/mL) M. catarrhalis: Moraxella catarrhalis; for MIC: M. catarrhalis
# Summary of the method: as §1
# [5] = test system: Serratia marcescens; test: MIC against Gram-negative bacteria: Serratia marcescens; conditions: for MIC against S. marcescens / MIC (μg/mL) S. marcescens: Serratia marcescens; for MIC: S. marcescens
# Summary of the method: as §1
# [6] = test system: E. coli DH5α; test: Antibacterial activity: MIC and growth curve against E. coli DH5α in 96-well plate; conditions: minimal inhibitory concentration against E. coli DH5α; 96-well plate, 5×10^5 CFU/mL, 37° C., judged after 8 h
# Summary of the method: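 Log-phase bacteria (OD600 ~0.5) resuspended in LB at 5×10^5 CFU/mL, exposed to recombinant protein at 50, 25, 12.5 μg/mL final in triplicate, 37 °C shaking at 175 rpm. OD600 read every 30 min; MIC is lowest concentration showing no growth.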
# [7] = test system: Klebsiella pneumonia; test: MIC against Gram-negative bacteria: Klebsiella pneumonia; conditions: for MIC against K. pneumonia / MIC (μg/mL) K. pneumonia: Klebsiella pneumonia; for MIC: K. pneumonia
# Summary of the method: as §1
# [8] = test system: Proteus mirabilis; test: MIC against Gram-negative bacteria: Proteus mirabilis; conditions: for MIC against P. mirabilis / MIC (μg/mL) P. mirabilis: Proteus mirabilis; for MIC: P. mirabilis
# Summary of the method: as §1
# [9] = test system: E. coli BL21; test: MIC against Gram-negative bacteria: E. coli BL21; conditions: for MIC against E. coli BL21 / MIC / MIC (μg/mL) E. coli BL21: E. coli BL21
# Summary of the method: as §1
# [10] = test system: Proteus vulgaris; test: MIC against Gram-negative bacteria: Proteus vulgaris; conditions: for MIC against P. vulgaris / MIC (μg/mL) P. vulgaris: Proteus vulgaris; for MIC: P. vulgaris
# Summary of the method: as §1
# [11] = test system: Enterobacter cloacae; test: MIC against Gram-negative bacteria: Enterobacter cloacae; conditions: for MIC against E. cloacae / MIC (μg/mL) E. cloacae: Enterobacter cloacae; for MIC: E. cloacae
# Summary of the method: as §1
# [12] = 96-well plate, 5×10^5 CFU/mL, 37° C., 10 h
# [13] = 10 h cultivation at 37° C., 5×10^5 CFU/mL, two-fold serial dilution
# [14] = 10 h cultivation at 37° C., 5×10^5 CFU/mL
# [15] = 5×10^5 CFU/mL, 10 h cultivation at 37° C.
substance,measurement,setting,value
PRT1199 (AFCEEGCRYGGTCVAPNKCVCPSGFTGSHCE; listed as Homo sapiens),MIC against A. hydrophila,[1]; [12],25 µg/mL
same,MIC against P. aeruginosa,[2]; [12],50 µg/mL
same,MIC against C. diversus,[3]; [12],25 µg/mL
same,MIC against M. catarrhalis,[4]; [12],12.5 µg/mL
same,MIC against S. marcescens,[5]; [12],25 µg/mL
same,MIC,[6],50 µg/mL
same,MIC against K. pneumonia,[7]; [12],12.5 µg/mL
same,MIC against P. mirabilis,[8]; [12],25 µg/mL
same,MIC against E. coli BL21,[9]; [12],12.5 µg/mL
same,MIC against P. vulgaris,[10]; [12],50 µg/mL
same,MIC against E. cloacae,[11]; [12],50 µg/mL
PRT916 (QADPCASNPCANGGQCLPFEASYICHCPPSFHGPTCR; listed as Homo sapiens),MIC,[1]; 10 h cultivation at 37° C.,50 µg/mL
same,MIC,[2]; 10 h cultivation at 37° C.,50 µg/mL
same,MIC,[3]; 10 h cultivation at 37° C.,25 µg/mL
same,MIC,[4]; 10 h cultivation at 37° C.,12.5 µg/mL
same,MIC,[5]; 10 h cultivation at 37° C.,12.5 µg/mL
same,MIC,[6],25 µg/mL
same,MIC,[7]; 10 h cultivation at 37° C.,25 µg/mL
same,MIC,[8]; 10 h cultivation at 37° C.,25 µg/mL
same,MIC,[9]; 10 h cultivation at 37° C.,12.5 µg/mL
same,MIC,[10]; 10 h cultivation at 37° C.,50 µg/mL
same,MIC,[11]; 10 h cultivation at 37° C.,12.5 µg/mL
PRT1154 (DGTACGYNTCRNGGECTVNGTTFSCRCLPDWAGNTCN; listed as Homo sapiens),MIC A. hydrophila,[1]; [13],100 µg/mL
same,MIC P. aeruginosa,[2]; [13],50 µg/mL
same,MIC C. diversus,[3]; [13],12.5 µg/mL
same,MIC M. catarrhalis,[4]; [13],12.5 µg/mL
same,MIC S. marcescens,[5]; [13],12.5 µg/mL
same,MIC,[6],50 µg/mL
same,MIC K. pneumonia,[7]; [13],12.5 µg/mL
same,MIC P. mirabilis,[8]; [13],12.5 µg/mL
same,MIC E. coli BL21,[9]; [13],12.5 µg/mL
same,MIC P. vulgaris,[10]; [13],12.5 µg/mL
same,MIC E. cloacae,[11]; [13],25 µg/mL
PRT70 (VDDPCTSSPCPPNSRCHDAWEDYSCVCDKGYLGINC; listed as Homo sapiens),MIC (μg/mL) A. hydrophila,[1]; [12],25 µg/mL
same,MIC (μg/mL) P. aeruginosa,[2]; [12],12.5 µg/mL
same,MIC (μg/mL) C. diversus,[3]; [12],12.5 µg/mL
same,MIC (μg/mL) M. catarrhalis,[4]; [12],12.5 µg/mL
same,MIC (μg/mL) S. marcescens,[5]; [12],25 µg/mL
same,MIC,[6],12.5 µg/mL
same,MIC (μg/mL) K. pneumonia,[7]; [12],25 µg/mL
same,MIC (μg/mL) P. mirabilis,[8]; [12],50 µg/mL
same,MIC (μg/mL) E. coli BL21,[9]; [12],12.5 µg/mL
same,MIC (μg/mL) P. vulgaris,[10]; [12],12.5 µg/mL
same,MIC (μg/mL) E. cloacae,[11]; [12],12.5 µg/mL
PRT425 (DVDECAMGTHTCQPGFLCQNTKGSFYCQARQRCMDGFLQDPEGNCV; listed as Homo sapiens),MIC,[1]; [14],25 µg/mL
same,MIC,[2]; [14],50 µg/mL
same,MIC,[3]; [14],50 µg/mL
same,MIC,[4]; [14],12.5 µg/mL
same,MIC,[5]; [14],50 µg/mL
same,MIC,[6],12.5 µg/mL
same,MIC,[7]; [14],25 µg/mL
same,MIC,[8]; [14],50 µg/mL
same,MIC,[9]; [14],25 µg/mL
same,MIC,[10]; [14],12.5 µg/mL
same,MIC,[11]; [14],12.5 µg/mL
PRT80 (TNVCDLNPCEHQSVCTRKPSAPHGYTCECPPNYLGPYCE; listed as Homo sapiens),MIC (μg/mL) A. hydrophila,[1]; [12],25 µg/mL
same,MIC (μg/mL) P. aeruginosa,[2]; [12],12.5 µg/mL
same,MIC (μg/mL) C. diversus,[3]; [12],12.5 µg/mL
same,MIC (μg/mL) M. catarrhalis,[4]; [12],25 µg/mL
same,MIC (μg/mL) S. marcescens,[5]; [12],12.5 µg/mL
same,MIC,[6],12.5 µg/mL
same,MIC (μg/mL) K. pneumonia,[7]; [12],25 µg/mL
same,MIC (μg/mL) P. mirabilis,[8]; [12],12.5 µg/mL
same,MIC (μg/mL) E. coli BL21,[9]; [12],50 µg/mL
same,MIC (μg/mL) P. vulgaris,[10]; [12],12.5 µg/mL
same,MIC (μg/mL) E. cloacae,[11]; [12],12.5 µg/mL
PRT1421 (ATQSCNDLCEHFCVPNPDQPGSYSCMCETGYRLAADQHRCE; listed as Homo sapiens),MIC against A. hydrophila,[1]; [15],50 µg/mL
same,MIC against P. aeruginosa,[2]; [15],12.5 µg/mL
same,MIC against C. diversus,[3]; [15],25 µg/mL
same,MIC against M. catarrhalis,[4]; [15],12.5 µg/mL
same,MIC against S. marcescens,[5]; [15],25 µg/mL
same,MIC,[6],12.5 µg/mL
same,MIC against K. pneumonia,[7]; [15],50 µg/mL
same,MIC against P. mirabilis,[8]; [15],25 µg/mL
same,MIC against E. coli BL21,[9]; [15],50 µg/mL
same,MIC against P. vulgaris,[10]; [15],12.5 µg/mL
same,MIC against E. cloacae,[11]; [15],12.5 µg/mL
